Common to all, as to format: in vivo
One experiment concerns Puccinia triticina. Nature of the experiment: Wheat brown rust (PUCCRT), disease control on wheat seedlings. The conditions noted are these: low volume application at 121.5 g/H. The gist of the method: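 Compounds in acetone, diluted with nine volumes of water containing 110 ppm Triton X-100, sprayed to run-off on first-leaf Yuma wheat seedlings; track-spray tests used EC formulations with 0.1% Trycol 5941. Puccinia triticina spores applied before or after treatment. Overnight dark dew room at 22° C, 100% humidity, then greenhouse at 24° C.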

The next experiment concerns Zymoseptoria tritici. Nature of the experiment: Leaf blotch of wheat (SEPTTR), disease control on wheat seedlings. The conditions noted are these: low volume application at 121.5 g/H. In short, it runs like this: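 Z. tritici spores were inoculated onto wheat seedlings (Yuma, first leaf emerged) either before or after treatment. Treatment was an automated spray to run-off of acetone/Triton X-100 water solutions, or a track spray of EC formulations with 0.1% Trycol 5941. Plants were held in dew chambers at 20 °C and then a greenhouse at 20 °C. First-leaf severity (0–100%) was converted to percent control against untreated plants.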

The subject of another experiment is Phakopsora pachyrhizi. As to the kind of experiment: Asian soybean rust (PHAKPA), disease control on soybean seedlings. The conditions noted are these: High volume application at 25 ppm. The method, then: Technical grades of materials were dissolved in acetone, which were then mixed with nine volumes of water containing 0.011% Tween 20. The fungicide solutions were applied onto soybean seedlings using an automated booth sprayer to run-off. All sprayed plants were allowed to air dry prior to further handling.
Soybean plants (variety Williams 82) were grown in soil-less Metro mix, with one plant per pot. Two week old seedlings were used for testing. Plants were inoculated either 3 days prior to or 1 day after fungicide treatments. Plants were incubated for 24 h in a dark dew room at 22° C. and 100% relative humidity then transferred to a growth room at 23° C. for disease to develop. Disease severity was assessed on the sprayed leaves.

Setting [1] is: 24 h, 1 Day Protectant, read-out: PUCCRT disease control, 1DP, LV activity.
The mark [2] stands for this setting: 72 h, 3 Day Curative, read-out: PUCCRT disease control, 3DC, LV activity.
Setting [3] is: 24 h, 1 Day Protectant, read-out: SEPTTR disease control, 1DP, LV activity.
Setting [4] is: 72 h, 3 Day Curative, read-out: SEPTTR disease control, 3DC, LV activity.
[5] abbreviates: 24 h, 1 Day Protectant, read-out: PHAKPA 1DP disease control rating.
Setting [6] is: 72 h, 3 Day Curative, read-out: PHAKPA 3DC disease control rating.
Where [7] appears, read: 24 h, 1 Day Protectant, wheat brown rust, read-out: PUCCRT 1DP disease control, LV activity.
Setting [8] is: 72 h, 3 Day Curative, wheat brown rust, read-out: PUCCRT 3DC disease control, LV activity.
The mark [9] stands for this setting: 24 h, 1 Day Protectant, wheat leaf blotch, read-out: SEPTTR 1DP disease control, LV activity.
Setting [10] is: 72 h, 3 Day Curative, wheat leaf blotch, read-out: SEPTTR 3DC disease control, LV activity.

Read-outs that look alike come from different tables or passages of the source.

For `COCCC(=O)Oc1c(OC)ccnc1C(=O)N[C@@H](C)C(=O)O[C@@H](C)[C@H](c1ccc(F)cc1OC)C1CCC1` [Compound 238], the pest or weed control at 121.5 g/ha in the experiment on Puccinia triticina (setting [1]), in the experiment on Puccinia triticina (setting [2]), in the experiment on Zymoseptoria tritici (setting [3]) and in the experiment on Zymoseptoria tritici (setting [4]) was under 80% each time. Also, the pest or weed control at 25 ppm in the experiment with Phakopsora pachyrhizi (setting [5]) and in the experiment on Phakopsora pachyrhizi (setting [6]) was under 80% in each case.

For `COc1ccnc(C(=O)N[C@@H](C)C(=O)O[C@@H](C)[C@H](c2ccc(F)cc2C)C2CCCC2)c1OCOC(C)=O` [Compound 195], the pest or weed control at 121.5 g/ha in the experiment on Puccinia triticina (setting [1]), in the experiment on Puccinia triticina (setting [2]), with Zymoseptoria tritici (setting [3]) and in the experiment on Zymoseptoria tritici (setting [4]) was over 80% each time. In addition, the pest or weed control at 25 ppm in the experiment with Phakopsora pachyrhizi (setting [5]) is over 80%; in the experiment with Phakopsora pachyrhizi (setting [6]), under 80%.

On to `COc1ccnc(C(=O)N[C@@H](C)C(=O)O[C@@H](C)[C@@H](c2ccc(F)cc2C)C(C)C)c1OC(C)=O` [Compound 178], for which the pest or weed control at 121.5 g/ha in the experiment with Puccinia triticina (setting [1]) was over 80%; with Puccinia triticina (setting [2]), under 80%; in the experiment on Zymoseptoria tritici (setting [3]), under 0%; in the experiment with Zymoseptoria tritici (setting [4]), under 80%. Also, the pest or weed control at 25 ppm in the experiment with Phakopsora pachyrhizi (setting [5]) was under 0%; in the experiment on Phakopsora pachyrhizi (setting [6]), under 80%.

On to `COc1ccnc(C(=O)N[C@@H](C)C(=O)O[C@@H](C)[C@H](c2ccc(OC(F)(F)F)cc2)C(C)C)c1OCOC(C)=O` [Compound 378], for which the pest or weed control at 121.5 g/ha in the experiment on Puccinia triticina (setting [7]), with Puccinia triticina (setting [8]), with Zymoseptoria tritici (setting [9]) and in the experiment with Zymoseptoria tritici (setting [10]) was over 80% in each case. Further, the pest or weed control at 25 ppm in the experiment with Phakopsora pachyrhizi (setting [5]) and with Phakopsora pachyrhizi (setting [6]) was under 80% throughout.

On to `COc1ccnc(C(=O)N[C@@H](C)C(=O)O[C@H](C)[C@H](c2ccc(F)cc2C)C2CCCC2)c1OC(C)=O` [Compound 190], for which the pest or weed control at 121.5 g/ha with Puccinia triticina (setting [1]) is under 0%; in the experiment with Puccinia triticina (setting [2]), under 0%; in the experiment with Zymoseptoria tritici (setting [3]), under 0%; in the experiment with Zymoseptoria tritici (setting [4]), under 80%. Also, the pest or weed control at 25 ppm in the experiment with Phakopsora pachyrhizi (setting [5]) and in the experiment with Phakopsora pachyrhizi (setting [6]) was under 80% each time.

Take `CCC(C)[C@H](c1ccc(C)cc1C)[C@H](C)OC(=O)[C@H](C)NC(=O)c1nccc(OC)c1OCOC(C)=O` (stereo partly drawn) [Compound 207]: the pest or weed control at 121.5 g/ha in the experiment with Puccinia triticina (setting [1]) was over 80%; in the experiment with Puccinia triticina (setting [2]) it was under 80%; with Zymoseptoria tritici (setting [3]), under 80%; in the experiment with Zymoseptoria tritici (setting [4]), over 80%. The values for the pest or weed control at 25 ppm in the experiment with Phakopsora pachyrhizi (setting [5]) and in the experiment with Phakopsora pachyrhizi (setting [6]) were over 80% and under 0%, respectively.

For the molecule `COc1cc(F)ccc1[C@@H](C(C)C)[C@H](C)OC(=O)[C@H](C)NC(=O)c1nccc(OC)c1OC(C)=O` [Compound 221], the pest or weed control at 121.5 g/ha with Puccinia triticina (setting [1]) is under 80%; in the experiment with Puccinia triticina (setting [2]), under 80%; with Zymoseptoria tritici (setting [3]), under 80%; in the experiment with Zymoseptoria tritici (setting [4]), over 80%. The pest or weed control at 25 ppm in the experiment with Phakopsora pachyrhizi (setting [5]) and in the experiment with Phakopsora pachyrhizi (setting [6]) was under 80% in each case.

With `COc1ccnc(C(=O)N[C@@H](C)C(=O)O[C@@H](C)[C@@H](c2ccc(C)cc2C)C(C)C)c1OCOC(C)=O` [Compound 204], the pest or weed control at 121.5 g/ha is over 80% in the experiment with Puccinia triticina (setting [1]), under 80% in the experiment on Puccinia triticina (setting [2]), under 0% with Zymoseptoria tritici (setting [3]) and under 80% in the experiment with Zymoseptoria tritici (setting [4]). Further, the pest or weed control at 25 ppm in the experiment with Phakopsora pachyrhizi (setting [5]) was under 80%; in the experiment on Phakopsora pachyrhizi (setting [6]), under 0%.

Regarding `COCCC(=O)Oc1c(OC)ccnc1C(=O)N[C@@H](C)C(=O)O[C@@H](C)[C@H](c1ccc(F)cc1OC)C(C)C` [Compound 239], the pest or weed control at 121.5 g/ha was over 80% in the experiment on Puccinia triticina (setting [1]), over 80% with Puccinia triticina (setting [2]), over 80% in the experiment on Zymoseptoria tritici (setting [3]) and under 80% with Zymoseptoria tritici (setting [4]). Also, the pest or weed control at 25 ppm in the experiment with Phakopsora pachyrhizi (setting [5]) and in the experiment on Phakopsora pachyrhizi (setting [6]) was over 80% each time.

As for `COc1ccnc(C(=O)N[C@@H](C)C(=O)O[C@@H](C)[C@H](c2ccc(F)cc2C)C2CCC2)c1OC(C)=O` [Compound 189], the pest or weed control at 121.5 g/ha in the experiment on Puccinia triticina (setting [1]) was over 80%; with Puccinia triticina (setting [2]) it was under 80%; in the experiment on Zymoseptoria tritici (setting [3]) it was over 80%; in the experiment with Zymoseptoria tritici (setting [4]), over 80%. In addition, the pest or weed control at 25 ppm was over 80% in the experiment on Phakopsora pachyrhizi (setting [5]) and under 80% in the experiment with Phakopsora pachyrhizi (setting [6]).

Regarding `CCC(C)[C@@H](c1ccc(F)cc1OC)[C@H](C)OC(=O)[C@H](C)NC(=O)c1nccc(OC)c1OC(C)=O` (stereo partly drawn) [Compound 230], the pest or weed control at 121.5 g/ha in the experiment with Puccinia triticina (setting [1]) is over 80%; with Puccinia triticina (setting [2]), over 80%; in the experiment with Zymoseptoria tritici (setting [3]), over 80%; in the experiment on Zymoseptoria tritici (setting [4]), under 80%. Besides, the pest or weed control at 25 ppm was over 80% with Phakopsora pachyrhizi (setting [5]) and under 80% in the experiment on Phakopsora pachyrhizi (setting [6]).

In the case of `CC[C@H](C)[C@H](NC(=O)c1nccc(OC)c1OC(=O)CCOC)C(=O)O[C@@H](C)[C@H](c1ccc(F)cc1C)C(C)C` [Compound 352], the pest or weed control at 121.5 g/ha in the experiment with Puccinia triticina (setting [1]) is over 80%; in the experiment on Puccinia triticina (setting [2]), under 80%; in the experiment with Zymoseptoria tritici (setting [3]), under 80%; in the experiment on Zymoseptoria tritici (setting [4]), under 80%. Also, the results for the pest or weed control at 25 ppm with Phakopsora pachyrhizi (setting [5]) and in the experiment with Phakopsora pachyrhizi (setting [6]) were over 80% and under 80%, respectively.

As for `COc1cc(F)ccc1[C@@H](C1CCCC1)[C@H](C)OC(=O)[C@H](C)NC(=O)c1nccc(OC)c1OCOC(C)=O` [Compound 234], the pest or weed control at 121.5 g/ha with Puccinia triticina (setting [1]) was over 80%; with Puccinia triticina (setting [2]), under 80%; in the experiment on Zymoseptoria tritici (setting [3]), under 80%; with Zymoseptoria tritici (setting [4]) it was under 80%. The results for the pest or weed control at 25 ppm in the experiment with Phakopsora pachyrhizi (setting [5]) and with Phakopsora pachyrhizi (setting [6]) were over 80% and under 0%, respectively.

Turning to `COc1ccnc(C(=O)N[C@@H](C)C(=O)O[C@@H](C)[C@H](c2ccc(F)cc2)C(C)C)c1OC(C)=O` [Compound 214], the pest or weed control at 121.5 g/ha in the experiment on Puccinia triticina (setting [1]), in the experiment with Puccinia triticina (setting [2]), with Zymoseptoria tritici (setting [3]) and with Zymoseptoria tritici (setting [4]) was over 80% each time. Moreover, the pest or weed control at 25 ppm with Phakopsora pachyrhizi (setting [5]) was over 80%; in the experiment on Phakopsora pachyrhizi (setting [6]), under 80%.

In the case of `COc1ccnc(C(=O)N[C@@H](C)C(=O)O[C@@H](C)[C@@H](c2ccccc2)C(C)C)c1OCOC(C)=O` [Compound 162], the pest or weed control at 121.5 g/ha in the experiment on Puccinia triticina (setting [1]) was over 80%; in the experiment on Puccinia triticina (setting [2]) it was over 80%; with Zymoseptoria tritici (setting [3]) it was under 80%; in the experiment with Zymoseptoria tritici (setting [4]), over 80%. For the same molecule, the values for the pest or weed control at 25 ppm in the experiment with Phakopsora pachyrhizi (setting [5]) and in the experiment on Phakopsora pachyrhizi (setting [6]) were over 80% and under 80%, respectively.

Turning to `COc1ccnc(C(=O)N[C@@H](C)C(=O)O[C@@H](C)[C@@H](c2ccc(Cl)cc2Cl)C(C)C)c1OC(C)=O` [Compound 370], the pest or weed control at 121.5 g/ha in the experiment on Puccinia triticina (setting [7]) was under 80%; with Puccinia triticina (setting [8]), under 0%; in the experiment on Zymoseptoria tritici (setting [9]) it was under 80%; in the experiment on Zymoseptoria tritici (setting [10]) it was under 80%. Besides, the pest or weed control at 25 ppm with Phakopsora pachyrhizi (setting [5]) and in the experiment with Phakopsora pachyrhizi (setting [6]) was under 80% each time.

Regarding `COc1ccnc(C(=O)N[C@@H](C)C(=O)O[C@@H](C)[C@@H](c2ccc(C)cc2C)C(C)C)c1OC(C)=O` [Compound 200], the pest or weed control at 121.5 g/ha with Puccinia triticina (setting [1]) was under 80%; in the experiment with Puccinia triticina (setting [2]), under 80%; with Zymoseptoria tritici (setting [3]) it was under 0%; with Zymoseptoria tritici (setting [4]), under 80%. The pest or weed control at 25 ppm with Phakopsora pachyrhizi (setting [5]) is under 80%; in the experiment with Phakopsora pachyrhizi (setting [6]), under 0%.

Consider `COc1ccnc(C(=O)N[C@@H](C)C(=O)O[C@@H](C)[C@@H](c2ccc(F)cc2C)C2CCCCC2)c1OCOC(C)=O` [Compound 194], for which the pest or weed control at 121.5 g/ha in the experiment on Puccinia triticina (setting [1]) is under 80%; in the experiment on Puccinia triticina (setting [2]) it was under 0%; with Zymoseptoria tritici (setting [3]), under 80%; with Zymoseptoria tritici (setting [4]) it was over 80%. Moreover, the pest or weed control at 25 ppm with Phakopsora pachyrhizi (setting [5]) and in the experiment on Phakopsora pachyrhizi (setting [6]) was under 80% each time.

As for `COc1cc(F)ccc1[C@H](C1CCCC1)[C@H](C)OC(=O)[C@H](C)NC(=O)c1nccc(OC)c1OCOC(C)=O` [Compound 235], the pest or weed control at 121.5 g/ha in the experiment with Puccinia triticina (setting [1]) was over 80%; in the experiment on Puccinia triticina (setting [2]), under 80%; with Zymoseptoria tritici (setting [3]) it was under 80%; with Zymoseptoria tritici (setting [4]) it was under 80%. In addition, the values for the pest or weed control at 25 ppm in the experiment on Phakopsora pachyrhizi (setting [5]) and in the experiment with Phakopsora pachyrhizi (setting [6]) were over 80% and under 80%, respectively.
